Data: patent US20080027075A1, “Quaternary Amino-Function Chalcones” (Lica Pharmaceuticals A/S, priority 2003, published 2008)
Values after ≈ are worked out from the molar mass of the structure shown. “Also recorded” adds a separate entry of the source.

Key:
[1] = system: panel of 10 different non-fastidious bacteria growing aerobically; test: Activity against non-fastidious bacteria (panel, discussed in words); type: cell-based; settings: for activity against pathogenic Gram-positive bacteria (in words): Gram-positive non-fastidious bacteria, comparison with Licochalcone A
[2] = MIC of D-001 quoted in the pharmacokinetic profile (strain not named); type: cell-based
[3] = system: Streptococcus pneumoniae #998 (clinical isolate); test: MIC determination in broth microdilution assay; type: cell-based; settings: F: Streptococcus pneumoniae #998 clinical isolate; MH-broth microdilution
[4] = system: Staphylococcus aureus ATCC33591 (resistant to methicillin); test: MIC determination in broth microdilution assay; type: cell-based; settings: B: Staphylococcus aureus ATCC33591 (resistant to methicillin); MH-broth microdilution
[5] = system: Eschericia coli ATCC25922; test: MIC determination in broth microdilution assay; type: cell-based; settings: for MIC: G: Eschericia coli ATCC25922, MH-broth microdilution; for activity against Eschericia coli (in words): Gram-negative prototype, Table 1
[6] = system: panel of anaerobic bacteria (Bacteroides fragilis, Clostridium perfringens, Clostridium difficele); type: cell-based; settings: single concentration of compound (100 μM); agar dilution
[7] = Pharmacokinetic studies, intravenous, mice; type: in vivo, female NMRI mice
Procedure: Evaluation of the pharmacokinetic properties of the compounds was done using female NMRI mice (weighing app. 30 g). Test articles were administrated intravenously and Samples of serum were taken at defined time-points. Standards and QC-samples in plasma were prepared and the serum concentrations of the test compounds quantified by HPLC-MS. Prior to analysis, proteins were precipitated by deluding the samples (1:1) (v/v) with 100% acetonitrile followed by centrifugation at 14,000 rpm in 10 min. The supernatant was used for the analysis. A Waters Alliance HPLC-system (Milford, Mass., USA) was coupled to a Quatro Micro triple quadropl mass spectrometer (Micromass, Manchester, UK) operating in positive (ESI) mode. Separation was performed on a XTerra MS C18 column (150*2.1 mm I.D., 3,5 μm particle size) (Waters Milford, Mass., USA). Mobile phase A: 0.1% (v/v) formic acid or 10 mM ammonium acetate pH-adjusted to 9.5 in MilliQ-water, mobile phase B: 100% methanol. The gradient was as follows: 0 min=70% A-30% B, 0-10 min. a linear gradient to 10% A and 90% B this was maintained till 11 min, 11-13 linear gradient to 70% A and 30% B this was maintained till 18 min. The flow rate was 0.20 ml/min, injection volume 10 μl.

[8] = system: Staphylococcus intermedius #2357 (clinical isolate from the Copenhagen area); test: MIC determination in broth microdilution assay; type: cell-based; settings: C: Staphylococcus intermedius #2357 clinical isolate; MH-broth microdilution
[9] = system: panel of six strains Helicobacter pylori, includes strains resistant to metronidazole; test: MIC determination against Helicobacter pylori (agar dilution); settings: 72 h, read-out: MICs against Helicobacter pylori
[10] = system: Enterococcus faecium #17501 (vancomycin-resistant clinical isolate); test: MIC determination in broth microdilution assay; type: cell-based; settings: E: Enterococcus faecium #17501 vancomycin-resistant clinical isolate; MH-broth microdilution
[11] = system: Enterococcus faecalis ATCC29212; test: MIC determination in broth microdilution assay; type: cell-based; settings: D: Enterococcus faecalis ATCC29212; MH-broth microdilution
[12] = system: Staphylococcus aureus ATCC29213; test: MIC determination in broth microdilution assay; type: cell-based; settings: A: Staphylococcus aureus ATCC29213; MH-broth microdilution
S. aureus E2371 = test: Killing curve determination (time-kill curve); type: cell-based, Staphylococcus aureus; settings: for bactericidal activity (CFU counts per ml in time-kill curve): concentrations above the MIC; for dependence of the bactericidal action: time-kill curve
S. aureus ATCC29213 = test: Killing curve determination (time-kill curve); type: cell-based, Staphylococcus aureus; settings: for bactericidal activity (CFU counts per ml in time-kill curve): concentrations above the MIC; for dependence of the bactericidal action: time-kill curve

| Compound | antibacterial effect (in words) ([1]; whole panel of non-fastidious bacteria) | MIC [2] | MIC [3] [µM] | MIC [4] [µM] | MIC [5] [µM] | activity against anaerobic bacteria [6] | Cmax ([7]; female, NMRI, mouse, serum, iv, single i.v. dose of 5 mg/ml) [µg/mL] | volume of distribution ([7]; i.v., as indicated by the plasma concentration) | MIC [8] [µM] | MIC [9] [µM] | MIC [10] [µM] | MIC [11] [µM] | activity against pathogenic Gram-positive bacteria (in words) [1] | MIC [12] [µM] | bactericidal activity (CFU counts per ml in time-kill curve) (S. aureus E2371) | dependence of the bactericidal action (S. aureus E2371) | activity against Eschericia coli (in words) [5] | bactericidal activity (CFU counts per ml in time-kill curve) (S. aureus ATCC29213) | dependence of the bactericidal action (S. aureus ATCC29213) |
| --- | --- | --- | --- | --- | --- | --- | --- | --- | --- | --- | --- | --- | --- | --- | --- | --- | --- | --- | --- |
| COc1ccc(C(=O)/C=C/c2ccccc2)cc1 [4′-MC, 4′methoxy chalcone, reference compound] | no antibacterial effect at all | – | – | – | – | – | – | – | – | – | – | – | – | – | – | – | – | – | – |
| COc1ccc(C(=O)/C=C/c2cc(-c3cc(C)cc(C)c3)ccc2OCC[N+](C)(C)C)c(Cl)c1.[I-] [D-001, (2-{3-[3-(2-Chloro-4-methoxy-phenyl)-3-oxo-propenyl]-3′,5′-dimethyl-biphenyl-4-yloxy}-ethyl)-trimethyl-ammonium; iodide] | – | approximately 1 μg/mi | 18.8 | 4.7 | 37.5 | activity against all microorganisms within the test panel | 126 | very low | 2.4 | 50 to 100 | 4.7 | 4.7 | increased potency | 2.4 | – | – | – | – | – |
| Cc1cc(C)cc(-c2ccc(OCC[N+](C)(C)C)c(/C=C/C(=O)c3ccc(N)cc3)c2)c1 [D-002, (2-{3-[3-(4-Amino-phenyl)-3-oxo-propenyl]-3′,5′-dimethyl-biphenyl-4-yloxy}-ethyl)-trimethyl-ammonium; iodide] | – | – | 18.8 | 9.4 | 75 | – | – | – | 9.4 | – | 18.8 | 18.8 | – | 9.4 | – | – | – | – | – |
| Cc1cc(C)cc(-c2ccc(OCC[N+](C)(C)C)c(/C=C/C(=O)c3ccccc3N)c2)c1.[I-] [D-003, (2-{3-[3-(2-Amino-phenyl)-3-oxo-propenyl]-3′,5′-dimethyl-biphenyl-4-yloxy}-ethyl)-trimethyl-ammonium; iodide] | – | – | 18.8 | 4.7 | 18.8 | – | – | – | 2.4 | – | 4.7 | 4.7 | – | 4.7 | bactericidal | primarily dependent on the concentration of the test compound; also recorded: predominantly dependent on the concentration of the compound | high activity | – | – |
| COc1ccc(C(=O)/C=C/c2cc(-c3ccccc3OC)ccc2N2CC[N+](C)(C)CC2)c(F)c1 [D-004, 4-{3-[3-(2-Fluoro-4-methoxy-phenyl)-3-oxo-propenyl]-2′-methoxy-biphenyl-4-yl}-1,1-dimethyl-piperazin-1-ium] | – | – | 37.5 | 9.4 | 75 | – | – | – | 9.4 | – | 18.8 | 18.8 | – | 18.8 | – | – | – | – | – |
| CCCCN(CCCC)c1ccc(/C=C/C(=O)c2cccc(C[N+](C)(C)C)c2)cc1 [D-005, {3-[3-(4-Dibutylamino-phenyl)-acryloyl]-benzyl}-trimethyl-ammonium] | – | – | 37.5 | 9.4 | 75 | – | – | – | 4.7 | – | 9.4 | 18.8 | increased potency | 4.7 | – | – | – | bactericidal | primarily dependent on the concentration of the test compound |
| C[N+](C)(C)CCOc1ccc(-c2ccccc2)cc1/C=C/C(=O)c1cccc(C[N+](C)(C)C)c1.[I-].[I-] [D-006] | – | – | 150 | 18.8 | – | – | – | – | 18.8 | – | 37.5 | 75 | – | 18.8 | bactericidal | primarily dependent on the concentration of the test compound | – | – | – |
| COc1ccc(C(=O)/C=C/c2cc(-c3cc(C)cc(C)c3)ccc2OCC[N+](C)(C)C)c(C[N+](C)(C)C)c1.[I-].[I-] [D-007] | – | – | 75 | 18.8 | 75 | – | – | – | 9.4 | – | 75 | 150 | – | 18.8 | – | – | – | bactericidal | primarily dependent on incubation time; also recorded: predominantly dependent on the time of incubation with the compound |
| C=CC(C)(C)c1cc(/C=C/C(=O)c2ccc(O)cc2)c(OC)cc1O [LicA, Licochalcone A] | – | – | 75 (≈ 25.4 µg/mL) | 37.5 (≈ 12.7 µg/mL) | – | – | – | – | 37.5 (≈ 12.7 µg/mL) | – | 37.5 (≈ 12.7 µg/mL) | 37.5 (≈ 12.7 µg/mL) | moderate bactericidal activity | 37.5 (≈ 12.7 µg/mL) | – | – | only modest or no activity | – | – |
| COc1ccc(C(=O)/C=C/c2cc(-c3cc(C)cc(C)c3)ccc2OCCN(C)C)c(Cl)c1 [SM007, (E)-1-(2-Chloro-4-methoxy-phenyl)-3-[4-(2-dimethylamino-ethoxy)-3′,5′-dimethyl-biphenyl-3-yl]-propenone] | – | – | 18.8 (≈ 8.72 µg/mL) | 4.7 (≈ 2.18 µg/mL) | – | – | – | – | 4.7 (≈ 2.18 µg/mL) | – | 4.7 (≈ 2.18 µg/mL) | 9.4 (≈ 4.36 µg/mL) | – | 4.7 (≈ 2.18 µg/mL) | – | – | – | – | – |
| Cc1cc(C)cc(-c2ccc(OCCN(C)C)c(/C=C/C(=O)c3ccc(N)cc3)c2)c1 [SM008, (E)-1-(4-Amino-phenyl)-3-[4-(2-dimethylamino-ethoxy)-3′,5′-dimethyl-biphenyl-3-yl]-propenone] | – | – | 18.8 (≈ 7.79 µg/mL) | 9.4 (≈ 3.9 µg/mL) | – | – | – | – | 9.4 (≈ 3.9 µg/mL) | – | 9.4 (≈ 3.9 µg/mL) | 18.8 (≈ 7.79 µg/mL) | – | 9.4 (≈ 3.9 µg/mL) | – | – | – | – | – |
| Cc1cc(C)cc(-c2ccc(OCCN(C)C)c(/C=C/C(=O)c3ccccc3N)c2)c1 [SM009, (E)-1-(2-Amino-phenyl)-3-[4-(2-dimethylamino-ethoxy)-3′,5′-dimethyl-biphenyl-3-yl]-propenone] | – | – | 18.8 (≈ 7.79 µg/mL) | 4.7 (≈ 1.95 µg/mL) | – | – | – | – | 4.7 (≈ 1.95 µg/mL) | – | 4.7 (≈ 1.95 µg/mL) | 9.4 (≈ 3.9 µg/mL) | – | 4.7 (≈ 1.95 µg/mL) | – | – | – | – | – |
| COc1ccc(C(=O)/C=C/c2cc(-c3ccccc3OC)ccc2N2CCN(C)CC2)c(F)c1 [SM010, (E)-1-(2-Fluoro-4-methoxy-phenyl)-3-[2′-methoxy-4-(4-methyl-piperazin-1-yl)-biphenyl-3-yl]-propenone] | – | – | 37.5 (≈ 17.3 µg/mL) | 9.4 (≈ 4.33 µg/mL) | – | – | – | – | 9.4 (≈ 4.33 µg/mL) | – | 9.4 (≈ 4.33 µg/mL) | 18.8 (≈ 8.66 µg/mL) | – | 4.7 (≈ 2.16 µg/mL) | – | – | – | – | – |
| CCCCN(CCCC)c1ccc(/C=C/C(=O)c2cccc(CN(C)C)c2)cc1 [SM011, (E)-3-(4-Dibutylamino-phenyl)-1-(3-dimethylaminomethyl-phenyl)-propenone] | – | – | 18.8 (≈ 7.38 µg/mL) | 9.4 (≈ 3.69 µg/mL) | – | – | – | – | 9.4 (≈ 3.69 µg/mL) | – | 9.4 (≈ 3.69 µg/mL) | 9.4 (≈ 3.69 µg/mL) | – | 9.4 (≈ 3.69 µg/mL) | – | – | – | – | – |
| CN(C)CCOc1ccc(-c2ccccc2)cc1/C=C/C(=O)c1cccc(CN(C)C)c1 [SM012, (E)-3-[4-(2-Dimethylamino-ethoxy)-biphenyl-3-yl]-1-(3-dimethylaminomethyl-phenyl)-propenone] | – | – | 18.8 (≈ 8.06 µg/mL) | 18.8 (≈ 8.06 µg/mL) | 37.5 (≈ 16.1 µg/mL) | – | – | – | 18.8 (≈ 8.06 µg/mL) | – | 18.8 (≈ 8.06 µg/mL) | 18.8 (≈ 8.06 µg/mL) | – | 18.8 (≈ 8.06 µg/mL) | – | – | – | – | – |
| COc1ccc(C(=O)/C=C/c2cc(-c3cc(C)cc(C)c3)ccc2OCCN(C)C)c(CN(C)C)c1 [SM013, (E)-3-[4-(2-Dimethylamino-ethoxy)-3′,5′-dimethyl-biphenyl-3-yl]-1-(2-dimethylaminomethyl-4-methoxy-phenyl)-propenone] | – | – | 4.7 (≈ 2.29 µg/mL) | 9.4 (≈ 4.57 µg/mL) | 75 (≈ 36.5 µg/mL) | – | – | – | 18.8 (≈ 9.15 µg/mL) | – | 4.7 (≈ 2.29 µg/mL) | 4.7 (≈ 2.29 µg/mL) | – | 4.7 (≈ 2.29 µg/mL) | – | – | – | – | – |
